Assay results reported in patent US9527867B2, “Antibacterial biaromatic derivatives” (Actelion Pharmaceuticals Ltd., priority 2013, dated 2016).
≈ marks a conversion by molar mass, not a printed value.

Legend:
Experiment in all cases: Bacterial growth minimal inhibitory concentration (broth microdilution, CLSI M7-A7)
Format in all cases: cell-based
[1] = test system: Moraxella catarrhalis A894; conditions: quinolone-sensitive strain; for MIC: Moraxella catarrhalis, A894, cation-adjusted Mueller-Hinton Broth
Procedure, shortened: (§1)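 MICs (mg/L) by broth microdilution in cation-adjusted Mueller-Hinton Broth per CLSI M7-A7. A798 and T6474 are multiply resistant (quinolone-resistant) strains; A894 is quinolone-sensitive; ATCC29213 is methicillin- and quinolone-sensitive.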

[2] = test system: Acinetobacter baumannii T6474; conditions: multiply-resistant strain (in particular quinolone-resistant); for MIC: Acinetobacter baumannii, T6474, cation-adjusted Mueller-Hinton Broth
Procedure, shortened: as §1

[3] = test system: Staphylococcus aureus ATCC29213; conditions: methicillin-sensitive and quinolone-sensitive strain; for MIC: Staphylococcus aureus, ATCC29213, cation-adjusted Mueller-Hinton Broth, read-out: MIC for S. aureus ATCC29213
Procedure, shortened: as §1

[4] = test system: Staphylococcus aureus A798; conditions: multiply-resistant strain (in particular quinolone-resistant); for MIC: Staphylococcus aureus, A798, cation-adjusted Mueller-Hinton Broth, read-out: MIC for S. aureus A798
Procedure, shortened: as §1

[5] = test system: Enterococcus faecium A949; conditions: multiply-resistant strain (in particular quinolone-resistant); for MIC: Enterococcus faecium, A949, cation-adjusted Mueller-Hinton Broth, read-out: MIC for E. faecium A949
Procedure, shortened: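 Broth microdilution after CLSI M7-A7 in cation-adjusted Mueller-Hinton medium gave MIC values in mg/L.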

[6] = cation-adjusted Mueller-Hinton Broth

MIC [1] [µg/mL]	MIC [2] [µg/mL]	MIC [3] [µg/mL]	MIC [4] [µg/mL]	MIC [5] [µg/mL]	MIC for M. catarrhalis A894 [1, 6]	MIC for A. baumannii T6474 [2, 6] [µg/mL]	MIC for S. aureus ATCC29213 [3, 6] [µg/mL]	MIC for S. aureus A798 [4, 6] [µg/mL]	MIC for E. faecium A949 [5, 6] [µg/mL]	SMILES
0.125 (≈ 0.263 µM)	1 (≈ 2.1 µM)	2 (≈ 4.21 µM)	4 (≈ 8.41 µM)	> 8						COc1cnnc(-c2cccc(CNCCc3nn(-c4ccc5c(n4)NC(=O)CO5)c(=O)o3)c2)c1 [Example 108, 6-(5-{2-[3-(5-methoxy-pyridazin-3-yl)-benzylamino]-ethyl}-2-oxo-[1,3,4]oxadiazol-3-yl)-4H-pyrido[3,2-b][1,4]oxazin-3-one]
					≦0.016 mg/L	0.125	0.031	0.031	2	COc1cccc(-c2cc(CNCC[C@H]3CN(c4ccc5c(n4)NC(=O)CO5)C(=O)O3)ccc2O)n1 [Example 109]
0.125 (≈ 0.262 µM)	2 (≈ 4.19 µM)	4 (≈ 8.38 µM)	4 (≈ 8.38 µM)	> 8						COc1cnnc(-c2cncc(CNCC[C@H]3CN(c4ccc5c(n4)NC(=O)CO5)C(=O)O3)c2)c1 [Example 110, (S)-6-(5-(2-(((5-(5-methoxypyridazin-3-yl)pyridin-3-yl)methyl)amino)ethyl)-2-oxooxazolidin-3-yl)-2H-pyrido[3,2-b][1,4]oxazin-3(4H)-one]
0.031 (≈ 0.0649 µM)	0.25 (≈ 0.524 µM)	0.25 (≈ 0.524 µM)	0.5 (≈ 1.05 µM)	8 (≈ 16.8 µM)						COc1cnnc(-c2ccnc(CNCC[C@H]3CN(c4ccc5c(n4)NC(=O)CO5)C(=O)O3)c2)c1 [Example 111, (S)-6-(5-(2-(((4-(5-methoxypyridazin-3-yl)pyridin-2-yl)methyl)amino)ethyl)-2-oxooxazolidin-3-yl)-2H-pyrido[3,2-b][1,4]oxazin-3(4H)-one]
